Laboratory results as given in patent US8007995B2 (Bristol-Myers Squibb Company, priority 2005, dated 2011).

What was measured:
Assay in all cases: Proliferation assay (cell counts, growth inhibition)
Format in all cases: cell-based, human
[1] = test system: KPL-1; settings: Luminal, ER Positive, HER-2 Normal, inhibition at 1 μM
[2] = test system: BT-20; settings: Basal, ER Negative, HER-2 Normal, inhibition at 1 μM
Description: (§1) The cell lines MDA-MB-415, MDA-MB-134, HCC-1500, ZR-75-30, HCC-202, HCC-1419, HCC-38, HCC-70, HCC-1187, HCC-1806, HCC-1937, HCC-1954, MDA-MB-436, HCC-1569, Hs578t, HCC-1143, MDA-MB-175, BT-474, SK-BR-3, MDA-MB-361, UAC-893, UACC-812, UACC-732, T-47D, MDA-MB-453, MDA-MB-468, CAMA-1, MDA-MB-157, MCF-7, MDA-MB-435, ZR-75-1, BT-20, and MDA-MB-231 were obtained from American Type Culture Collection (Rockville, Md.). The cell lines EFM-192A, KPL-1, EFM-19 and CAL-51 were obtained from the German Tissue Repository DSMZ (Braunschweig Germany), and the cell lines SUM-190 and SUM-225 were obtained from the University of Michigan (Ann Arbor, Mich.). MDA-MB-134, MDA-MB415, MDA-MB-436, MDA-MB-175, UACC-893, UACC-812, and MDA-MB-157 cells were cultured in L15 medium supplemented with 10% heat-inactivated fetal bovine serum (FBS), […] glutamine and 1% penicillin G-streptomycin-fungizone solution (PSF, Irvine Scientific, Santa Ana, Calif.). CAL-51, KPL-1, Hs578t cells were grown in DMEM supplemented with 10% heat-inactivated FBS and PSF, as above. SUM-190 and SUM-225 cells were cultured in HAM's F12 supplemented with 5% heat-inactivated FBS, PSF, […] hydrocortisone. The remaining cell lines were cultured in RPMI 1640 supplemented with 10% heat-inactivated FBS, 2 mmol/L glutamine, and PSF.
(§2) Cells were seeded in duplicate at 5,000 to 10,000 cells per well in 24-well plates. […] Control wells without drug were seeded as well. Both the adherent and floating fractions of cells were counted on days 2, 5 and 7 for both treatment and control wells. After trypsinization cells were placed in Isotone solution and counted immediately using a Coulter Z2 particle counter (Beckman Coulter Inc, Fullerton, Calif.).
(§3) Growth inhibition was calculated [(1-experimental value/control value)×100] for each day adding both the values obtained for the floating cells and the adherent cells. Pearson-Chi-square analysis was performed to identify a correlation between subtype and sensitivity to dasatinib. Dasatinib was a gift from Frank Lee at Bristol-Meyers-Squibb.

[3] = test system: BT-474; settings: Luminal, ER Positive, HER-2 Amplified, inhibition at 1 μM
Description: as §1, §2, §3

[4] = test system: CAL-51; settings: Post-EMT, ER Negative, HER-2 Normal, inhibition at 1 μM
Description: as §1, §2, §3

[5] = test system: CAMA-1; settings: Luminal, ER Positive, HER-2 Normal, inhibition at 1 μM
Description: as §1, §2, §3

[6] = test system: EFM-192A; settings: Luminal, ER Positive, HER-2 Amplified, inhibition at 1 μM
Description: as §1, §2, §3

[7] = test system: EFM-19; settings: Luminal, ER Positive, HER-2 Normal, inhibition at 1 μM
Description: as §1, §2, §3

[8] = test system: HCC 38; settings: Basal, ER Negative, HER-2 Normal, inhibition at 1 μM
Description: as §1, §2, §3

[9] = test system: HCC-1143; settings: Basal, ER Negative, HER-2 Normal, inhibition at 1 μM
Description: as §1, §2, §3

[10] = test system: HCC-1187; settings: Basal, ER Negative, HER-2 Normal, inhibition at 1 μM
Description: as §1, §2, §3

[11] = test system: HCC-1419; settings: Luminal, ER Positive, HER-2 Amplified, inhibition at 1 μM
Description: as §1, §2, §3

[12] = test system: HCC-1500; settings: Luminal, ER Positive, HER-2 Normal, inhibition at 1 μM
Description: as §1, §2, §3

[13] = test system: HCC-1569; settings: Post-EMT, ER Negative, HER-2 Amplified, inhibition at 1 μM
Description: as §1, §2, §3

[14] = test system: HCC-1806; settings: Basal, ER Negative, HER-2 Normal, inhibition at 1 μM
Description: as §1, §2, §3

[15] = test system: HCC-1937; settings: Basal, ER Negative, HER-2 Normal, inhibition at 1 μM
Description: as §1, §2, §3

[16] = test system: HCC-1954; settings: Basal, ER Negative, HER-2 Amplified, inhibition at 1 μM
Description: as §1, §2, §3

[17] = test system: HCC-202; settings: Luminal, ER Positive, HER-2 Amplified, inhibition at 1 μM
Description: as §1, §2, §3

[18] = test system: HCC-70; settings: Basal, ER Negative, HER-2 Normal, inhibition at 1 μM
Description: as §1, §2, §3

[19] = test system: Hs578t; settings: Post-EMT, ER Negative, HER-2 Normal, inhibition at 1 μM
Description: as §1, §2, §3

[20] = test system: MCF-7; settings: Luminal, ER Positive, HER-2 Normal, inhibition at 1 μM
Description: as §1, §2, §3

[21] = test system: MDA-MB-134; settings: Luminal, ER Positive, HER-2 Normal, inhibition at 1 μM
Description: as §1, §2, §3

[22] = test system: MDA-MB-157; settings: Post-EMT, ER Negative, HER-2 Normal, inhibition at 1 μM
Description: as §1, §2, §3

[23] = test system: MDA-MB-175; settings: Luminal, ER Positive, HER-2 Normal, inhibition at 1 μM
Description: as §1, §2, §3

[24] = test system: MDA-MB-231; settings: Post-EMT, ER Negative, HER-2 Normal, inhibition at 1 μM
Description: as §1, §2, §3

[25] = test system: MDA-MB-361; settings: Luminal, ER Positive, HER-2 Amplified, inhibition at 1 μM
Description: as §1, §2, §3

[26] = test system: MDA-MB-415; settings: Luminal, ER Positive, HER-2 Normal, inhibition at 1 μM
Description: as §1, §2, §3

[27] = test system: MDA-MB-435; settings: Post-EMT, ER Negative, HER-2 Normal, inhibition at 1 μM
Description: as §1, §2, §3

[28] = test system: MDA-MB-436; settings: Post-EMT, ER Negative, HER-2 Normal, inhibition at 1 μM
Description: as §1, §2, §3

[29] = test system: MDA-MB-453; settings: Luminal, ER Negative, HER-2 Amplified, inhibition at 1 μM
Description: as §1, §2, §3

[30] = test system: MDA-MB-468; settings: Basal, ER Negative, HER-2 Normal, inhibition at 1 μM
Description: as §1, §2, §3

[31] = test system: SK-BR-3; settings: Luminal, ER Negative, HER-2 Amplified, inhibition at 1 μM
Description: as §1, §2, §3

[32] = test system: SUM-190; settings: Luminal, ER Negative, HER-2 Amplified, inhibition at 1 μM
Description: as §1, §2, §3

[33] = test system: SUM-225; settings: Luminal, ER Negative, HER-2 Amplified, inhibition at 1 μM
Description: as §1, §2, §3

[34] = test system: T-47D; settings: Luminal, ER Positive, HER-2 Normal, inhibition at 1 μM
Description: as §1, §2, §3

[35] = test system: UACC-732; settings: Luminal, ER Positive, HER-2 Amplified, inhibition at 1 μM
Description: as §1, §2, §3

[36] = test system: UACC-812; settings: Luminal, ER Positive, HER-2 Amplified, inhibition at 1 μM
Description: as §1, §2, §3

[37] = test system: UACC-893; settings: Luminal, ER Negative, HER-2 Amplified, inhibition at 1 μM
Description: as §1, §2, §3

[38] = test system: ZR-75-1; settings: Luminal, ER Positive, HER-2 Normal, inhibition at 1 μM
Description: as §1, §2, §3

[39] = test system: ZR-75-30; settings: Luminal, ER Positive, HER-2 Amplified, inhibition at 1 μM
Description: as §1, §2, §3

Cc1nc(Nc2ncc(C(=O)Nc3c(C)cccc3Cl)s2)cc(N2CCN(CCO)CC2)n1 [Dasatinib, N-(2-chloro-6-methylphenyl)-2-[[6-[4-(2-hydroxyethyl)-1-piperazinyl]-2-methyl-4-pyrimidinyl]amino]-5-thiazolecarboxamide]
Response to Dasatinib in vitro [1]: Resistant (<40% inhibition at 1 μM assigned to the resistant group)
Response to Dasatinib in vitro [2]: Resistant (<40% inhibition at 1 μM assigned to the resistant group)
Response to Dasatinib in vitro [3]: Moderately Sensitive (40-59% inhibition being assigned to the moderately sensitive group)
Response to Dasatinib in vitro [4]: Highly Sensitive (greater than 60% inhibition being assigned to the highly sensitive group)
Response to Dasatinib in vitro [5]: Resistant (<40% inhibition at 1 μM assigned to the resistant group)
Response to Dasatinib in vitro [6]: Resistant (<40% inhibition at 1 μM assigned to the resistant group)
Response to Dasatinib in vitro [7]: Moderately Sensitive (40-59% inhibition being assigned to the moderately sensitive group)
Response to Dasatinib in vitro [8]: Resistant (<40% inhibition at 1 μM assigned to the resistant group)
Response to Dasatinib in vitro [9]: Moderately Sensitive (40-59% inhibition being assigned to the moderately sensitive group)
Response to Dasatinib in vitro [10]: Moderately Sensitive (40-59% inhibition being assigned to the moderately sensitive group)
Response to Dasatinib in vitro [11]: Moderately Sensitive (40-59% inhibition being assigned to the moderately sensitive group)
Response to Dasatinib in vitro [12]: Resistant (<40% inhibition at 1 μM assigned to the resistant group)
Response to Dasatinib in vitro [13]: Resistant (<40% inhibition at 1 μM assigned to the resistant group)
Response to Dasatinib in vitro [14]: Highly Sensitive (greater than 60% inhibition being assigned to the highly sensitive group)
Response to Dasatinib in vitro [15]: Moderately Sensitive (40-59% inhibition being assigned to the moderately sensitive group)
Response to Dasatinib in vitro [16]: Moderately Sensitive (40-59% inhibition being assigned to the moderately sensitive group)
Response to Dasatinib in vitro [17]: Resistant (<40% inhibition at 1 μM assigned to the resistant group)
Response to Dasatinib in vitro [18]: Highly Sensitive (greater than 60% inhibition being assigned to the highly sensitive group)
Response to Dasatinib in vitro [19]: Highly Sensitive (greater than 60% inhibition being assigned to the highly sensitive group)
Response to Dasatinib in vitro [20]: Moderately Sensitive (40-59% inhibition being assigned to the moderately sensitive group)
Response to Dasatinib in vitro [21]: Resistant (<40% inhibition at 1 μM assigned to the resistant group)
Response to Dasatinib in vitro [22]: Highly Sensitive (greater than 60% inhibition being assigned to the highly sensitive group)
Response to Dasatinib in vitro [23]: Resistant (<40% inhibition at 1 μM assigned to the resistant group)
Response to Dasatinib in vitro [24]: Highly Sensitive (greater than 60% inhibition being assigned to the highly sensitive group)
Response to Dasatinib in vitro ([24]; listed as dasatinib): highly sensitive
Response to Dasatinib in vitro [25]: Moderately Sensitive (40-59% inhibition being assigned to the moderately sensitive group)
Response to Dasatinib in vitro [26]: Resistant (<40% inhibition at 1 μM assigned to the resistant group)
Response to Dasatinib in vitro [27]: Highly Sensitive (greater than 60% inhibition being assigned to the highly sensitive group)
Response to Dasatinib in vitro ([27]; listed as dasatinib): highly sensitive
Response to Dasatinib in vitro [28]: Highly Sensitive (greater than 60% inhibition being assigned to the highly sensitive group)
Response to Dasatinib in vitro [29]: Resistant (<40% inhibition at 1 μM assigned to the resistant group)
Response to Dasatinib in vitro [30]: Resistant (<40% inhibition at 1 μM assigned to the resistant group)
Response to Dasatinib in vitro ([30]; listed as dasatinib): resistant
Response to Dasatinib in vitro [31]: Resistant (<40% inhibition at 1 μM assigned to the resistant group)
Response to Dasatinib in vitro [32]: Resistant (<40% inhibition at 1 μM assigned to the resistant group)
Response to Dasatinib in vitro [33]: Resistant (<40% inhibition at 1 μM assigned to the resistant group)
Response to Dasatinib in vitro [34]: Moderately Sensitive (40-59% inhibition being assigned to the moderately sensitive group)
Response to Dasatinib in vitro [35]: Resistant (<40% inhibition at 1 μM assigned to the resistant group)
Response to Dasatinib in vitro [36]: Resistant (<40% inhibition at 1 μM assigned to the resistant group)
Response to Dasatinib in vitro [37]: Resistant (<40% inhibition at 1 μM assigned to the resistant group)
Response to Dasatinib in vitro [38]: Resistant (<40% inhibition at 1 μM assigned to the resistant group)
Response to Dasatinib in vitro [39]: Resistant (<40% inhibition at 1 μM assigned to the resistant group)
